Starred links: 1 amine or outer side, 2 acyl side, 3 side chain; linkers in the order of their positions; H or OH if unused. Non-standard residues stand in square brackets, D forms with d. Residues, ends and D or L forms follow the SMILES beside them. Phe(4-F)ψ(2,4-Thz) = O=C(c1csc([C@H](Cc2ccc(F)cc2)N[*:1])n1)[*:2]; Cha = N[C@@H](CC1CCCCC1)C(=O)O
Columns and labels:
[1] = target: T1, gel-filtered platelets (SFLLRN-NH2 (TRAP)-stimulated aggregation) (Homo sapiens, UniProt P25116); experiment: In vitro inhibition of SFLLRN-NH2 (TRAP)-induced gel-filtered platelet aggregation; format: cell-based; details: agonist SFLLRN-NH2 (TRAP)
T1 sequence (P25116 42-425): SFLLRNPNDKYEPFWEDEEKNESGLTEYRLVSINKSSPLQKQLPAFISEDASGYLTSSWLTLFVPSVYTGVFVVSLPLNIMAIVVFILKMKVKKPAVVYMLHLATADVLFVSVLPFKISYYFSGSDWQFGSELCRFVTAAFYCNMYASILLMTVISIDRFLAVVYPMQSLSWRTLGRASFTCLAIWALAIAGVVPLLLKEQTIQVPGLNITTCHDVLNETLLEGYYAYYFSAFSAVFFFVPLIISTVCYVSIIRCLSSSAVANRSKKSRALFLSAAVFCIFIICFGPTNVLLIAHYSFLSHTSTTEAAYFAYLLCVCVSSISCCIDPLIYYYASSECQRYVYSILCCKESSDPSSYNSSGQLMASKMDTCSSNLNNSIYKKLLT
Protocol: The percentage of platelet aggregation is calculated as an increase in light transmission of compound-treated platelet concentrate vs. control-treated platelet concentrate. Human blood is obtained from drug free, normal donors in tubes containing 0.13 M sodium citrate. Platelet rich plasma (PRP) is collected by centrifugation of whole blood at 200×g for 10 min at 25° C. The PRP (5 mL) is gel filtered through Sepharose 2B (bed volume 50 mL), and the platelet count is adjusted to 2×10^7 platelets per sample. The following constituents are added to a siliconized cuvette: concentrated platelet filtrate and Tyrode's buffer (0.14 M NaCl, 0.0027 M KCl, 0.012 M NaHCO3, 0.76 mM Na2 HPO4, 0.0055 M glucose, 2 mg/mL BSA and 5.0 mM HEPES@pH 7.4) in an amount equal to 350 μl, 50 μl of 20 mM calcium and 50 μl of the test compound. Aggregation is monitored in a BIODATA aggregometer for the 3 min following the addition of agonist (thrombin 50 μl of 1 unit/mL).
(§1) The table contains IC50 values (μM) of the compounds in a thrombin receptor binding assay, and IC50 values (μM) against platelet aggregation stimulated by two agonists, thrombin or SFLLRN-NH2 [SEQ. ID. NO:1] (TRAP).

[2] = target: T2, thrombin receptor (Homo sapiens, UniProt P25116); experiment: In vitro thrombin receptor binding assay (displacement of tritiated 721-40 from CHRF membranes); details: tritiated 721-40 (Ser-pFPhe-Har-Leu-Har-Lys-Tyr-NH2) radioligand, read-out: Thr Receptor Binding IC50
T2 construct: CHRF membranes (Jones, Biochim. Biophys. Acta 1992, 1136, 272) are thawed from -70° C; endogenous in cells; host or cells: CHRF cell membranes
T2 sequence (P25116 22-425): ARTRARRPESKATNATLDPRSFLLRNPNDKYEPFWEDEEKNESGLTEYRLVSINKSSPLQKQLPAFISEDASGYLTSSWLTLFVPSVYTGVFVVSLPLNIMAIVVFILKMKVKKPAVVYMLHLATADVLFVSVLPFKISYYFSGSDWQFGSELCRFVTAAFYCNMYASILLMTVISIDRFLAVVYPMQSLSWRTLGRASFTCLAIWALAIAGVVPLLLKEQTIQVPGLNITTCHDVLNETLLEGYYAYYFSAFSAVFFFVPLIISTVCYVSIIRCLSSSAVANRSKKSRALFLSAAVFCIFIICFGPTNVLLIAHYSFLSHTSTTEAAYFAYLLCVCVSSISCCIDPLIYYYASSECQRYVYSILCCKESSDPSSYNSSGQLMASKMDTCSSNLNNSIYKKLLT
Protocol: CHRF membranes (Jones, Biochim. Biophys. Acta 1992, 1136, 272) are thawed from -70° C., centrifuged at maximum speed for 5 min, washed twice with binding buffer (50 mM HEPES containing 5 mM MgCl2 and 0.1% BSA), and re-suspended in binding buffer ([…]). 100 μl of membranes are added to the 24-Wallac plates and delivered to the Tomtech apparatus. In a typical experiment, 6 μl of samples (from a 125 μg/mL intermediary plate, 20% DMSO) and 44 μl buffer are delivered to the plates (final conc. of compounds is 3.7 μg/mL, 0.6% DMSO). Similarly, 6 μl 20% DMSO and 44 μl buffer are delivered to both column 1 (NSB) and column 12 (TB). 10 μl Ser-pFPhe-Har-Leu-Har-Lys-Tyr-NH2 [SEQ. ID. NO:2] (721-40; 500 μM in deionized water) is added to column 1. 50 μl tritiated 721-40 (specific activity 46 Ci/mmol) is added to all the wells. The plates are mixed well for 20 seconds, incubated for 30 min, and then harvested with 10 mM HEPES/138 mM NaCl using the Skatron harvester. The filters (GF/C Brandel FPXLR 296) are presoaked 3 h in 0.5% polyethylenimine in HEPES/0.1 M N-acetylglucosamine) are set in saran wrap and dried for 3 min in the microwave, and placed in sample bags (Wallac 1450-432). 4.5 mL scintillation fluid (Wallac, Betaplate Scint 1205-440) is added. The bags are sealed, placed in filter cassettes (Wallac 1450-104), and analyzed on the microbeta counter.
as §1

| Compound | IC50 [1] [µM] | IC50 [2] [µM] |
| --- | --- | --- |
| CNCC(=O)N[C@@H](Cc1ccc(F)cc1)c1nc(C(=O)N[C@@H](CC2CCCCC2)C(=O)N[C@@H](CCCN=C(N)N)C(=O)NCc2ccccc2)co1 [Compound 1, 2-[1(S)-Sarcosineamido-2-(4-fluorophenyl)ethyl]oxazole-4-carboxy-cyclohexylalanyl-arginine benzylamide] | 10 | 2 |
| N=C(N)NCCC[C@H](NC(=O)[C@H](CC1CCCCC1)NC(=O)c1coc([C@H](Cc2ccc(F)cc2)NC(=O)CCN)n1)C(=O)NCc1ccccc1 [Compound 2, 2-[1(S)-β-Alanineamido-2-(4-fluorophenyl)ethyl]oxazole-4-carboxy-cyclohexylalanyl-arginine benzylamide] | 7 | 8.2 |
| CNCC(=O)N[C@@H](Cc1ccc(F)cc1)c1nc(C(=O)N[C@@H](CC2CCCCC2)C(=O)N[C@@H](CCCN=C(N)N)C(=O)NCCc2ccccc2)cs1 [Compound 3, 2-[1(S)-Sarcosineamido-2-(4-fluorophenyl)ethyl]thiazole-4-carboxy-cyclohexylalanyl-arginine phenethylamide] | 0.6 | 35 |
| CC[C@H](C)[C@H](N)C(=O)N[C@@H](Cc1ccc(F)cc1)c1nc(C(=O)N[C@@H](CC2CCCCC2)C(=O)N[C@@H](CCCN=C(N)N)C(=O)N[C@@H](Cc2ccccc2)C(N)=O)cs1 [Compound 5, 2-[1(S)-Isoleucineamido-2-(4-fluorophenyl)ethyl]thiazole-4-carboxy-cyclohexylalanyl-arginyl-phenylalanineamide] (H-I[Phe(4-F)ψ(2,4-Thz)][Cha]RF-NH2) | 9 | 3.5 |
| CNCC(=O)N[C@@H](Cc1ccc(F)cc1)c1nc(C(=O)N[C@@H](CCCCN)C(=O)N[C@@H](CCCNC(=N)N)C(=O)NCCc2ccccc2)cs1 [Compound 6, 2-[1(S)-Sarcosineamido-2-(4-fluorophenyl)ethyl]thiazole-4-carboxy-lysyl-arginine phenethylamide] | 4 | 15.5 |
| CNCC(=O)N[C@@H](Cc1ccc(F)cc1)c1nc(C(=O)N[C@@H](CC2CCCCC2)C(=O)N[C@@H](CCCNC(=N)N)C(=O)NCc2ccccc2)c(C)o1 [Compound 7, 2-[1(S)-Sarcosineamido-2-(4-fluorophenyl)ethyl]-5-methyloxazole-4-carboxy-cyclohexylalanyl-arginine benzylamide] | 22 | 7 |
| Cc1oc([C@H](Cc2ccc(F)cc2)NC(=O)[C@@H](N)Cc2cn(Cc3ccccc3)cn2)nc1C(=O)N[C@@H](CC1CCCCC1)C(=O)N[C@@H](CCCNC(=N)N)C(=O)NCc1ccccc1 [Compound 8, 2-[1(S)-N(tau)-Benzyl-histidineamido-2-(4-fluorophenyl)ethyl]-5-methyloxazole-4-carboxy-cyclohexylalanyl-arginine benzylamide] | 5 | 30 |
| CC(=O)N[C@@H](Cc1ccc(F)cc1)c1nc(C(=O)N[C@@H](CC2CCCCC2)C(=O)N[C@@H](CCCNC(=N)N)C(=O)NCc2ccccc2)c(C)o1 [Compound 9, 2-[1(S)-Acetamido-2-(4-fluorophenyl)ethyl]-5-methyloxazole-4-carboxy-cyclohexylalanyl-arginine benzylamide] | 11 | 31 |
| Cc1oc([C@H](Cc2ccc(F)cc2)N(C)C)nc1C(=O)N[C@@H](CC1CCCCC1)C(=O)N[C@@H](CCCNC(=N)N)C(=O)NCc1ccccc1 [Compound 10, 2-[1(S)-N,N-Dimethyl-2-(4-fluorophenyl)ethyl]-5-methyloxazole-4-carboxy-cyclohexylalanyl-arginine benzylamide] | 17 | – |

— patent US6017890A, “Azole peptidomimetics as thrombin receptor antagonists” (Ortho-McNeil Pharmaceutical, Inc., priority 1999, dated 2000)
